Measured values as given in patent US20200061026A1, “METHODS AND COMPOSITIONS FOR PREVENTING VECTOR-BORNE DISEASE TRANSMISSION” (The Scripps Research Institute, priority 2016, published 2020).
Where “and” joins values, the source holds several entries; their conditions need not be identical. Equal values may be shown once. Read-outs that look alike come from different tables or passages of the source.

Tests used:
[1] = test system: Anopheles stephensi; assay: Standard membrane feeding assay, Anopheles stephensi; type: in vivo; details: for IC50: Anopheles stephensi; for killing of mosquitos (in words): lethality 1, 2 or 8 days after exposure; for whole blood IC99: mosquitocidal
Procedure: Mosquito colonies utilized in the examples were generally maintained as described: The colony of Anopheles stephensi (Sind-Kasur Nijmegen strain) was maintained at the Radboud University Medical Center, Nijmegen, The Netherlands, by 30° C. and 70-80% humidity and on a 12/12 hour day/night cycle. The Anopheles gambiae strains Kisumu and Tiassalé and the Aedes aegypti strains New Orleans and Cayman were reared at the Liverpool Insect Testing Establishment, Liverpool, UK. Kisumu is an insecticide susceptible lab strain. New Orleans was originally colonized by the Centers for Disease Control and Prevention. The Tiassalé strain was colonized from Southern Cote D'Ivoire where resistance to all classes of insecticide is found and the Cayman strain was colonized from Grand Cayman, where Aedes aegypti are highly resistant to DDT and pyrethroid insecticides. Both resistant strains are routinely selected with insecticides to ensure the maintenance of resistance, 0.75% permethrin for Cayman and 0.05% deltamethrin for Tiassalé, and profiled for resistance to a range of insecticides, including 4% dieldrin, to which Tiassalé is resistant but Cayman is susceptible.
(§1) Isoxazoline compounds fluralaner or afoxolaner were reconstituted in 50% human serum and 50% red blood cells and administered to adult Anopheles stephensi mosquitos via standard membrane feeding. Lethality was assessed 1, 2 or 8 days after exposure. FIG. 2A represents a plot of viable Anopheles stephensi versus fluralaner concentration at each day of assessment. FIG. 2B represents a plot of viable Anopheles stephensi versus afoxolaner concentration at each day of assessment. […] The IC50 values of each compound for Anopheles death were determined by logistic regression using a least squares method to find the best fit and are shown in Table 1. IC50 values were calculated by applying a four-parameter logistic regression model using a least-squares method to find the best fit using the Graphpad Prism 5.0 software package.
FIG. 2C represents a plot of viable Anopheles stephensi versus fluralaner concentration at each time of assessment. FIG. 2D represents a plot of viable Anopheles stephensi versus afoxolaner concentration at each time of assessment. FIG. 2E represents plots of viable Anopheles stephensi versus concentration of (S)- and (R)-enantiomers of afoxolaner at each time of assessment. […] The IC50 (M) concentrations are also shown for FIGS. 2C and 2D.

[2] = test system: Anopheles gambiae (Kisumu); assay: Membrane feeding, Anopheles gambiae Kisumu strain; type: in vivo; details: read-out: IC50 [95% CI]
Procedure: Mosquito colonies utilized in the examples were generally maintained as described: The colony of Anopheles stephensi (Sind-Kasur Nijmegen strain) was maintained at the Radboud University Medical Center, Nijmegen, The Netherlands, by 30° C. and 70-80% humidity and on a 12/12 hour day/night cycle. The Anopheles gambiae strains Kisumu and Tiassalé and the Aedes aegypti strains New Orleans and Cayman were reared at the Liverpool Insect Testing Establishment, Liverpool, UK. Kisumu is an insecticide susceptible lab strain. New Orleans was originally colonized by the Centers for Disease Control and Prevention. […]
as §1, with “exposure.” for “exposure. FIG. 2A represents a plot of viable Anopheles stephensi versus fluralaner concentration at each day of assessment. FIG. 2B represents a plot of viable Anopheles stephensi versus afoxolaner concentration at each day of assessment.”, “package. […]” for “package.”

[3] = test system: Aedes aegypti (New Orleans); assay: Membrane feeding, Aedes aegypti New Orleans strain; type: in vivo; details: read-out: IC50 [95% CI]
[4] = test system: various Anopheles and Aedes mosquitos; assay: Membrane feeding, all Anopheles and Aedes strains tested; type: in vivo; details: read-out: IC50 values, range against all strains tested
Procedure: as §1

[5] = Further in vitro degradation assay, human primary hepatocytes; details: for half-life / hepatocyte CLint: human; for metabolization when incubated with human hepatocytes: in words
Procedure: (§2) In a further assay, isoxazolines (fluralaner and afoxolaner) and control compounds (7-Ethoxycoumarin and 7-Hydroxycoumarin [Sigma]) were dissolved in DMSO at 10 and 30 mM respectively, then diluted first 20-fold with 45% methanol in water and a further 10-fold in pre-warmed Williams' Medium E. Cryopreserved human, dog and rat hepatocytes (In Vitro Technologies) were thawed, isolated by percoll gradient and suspended in Williams' Medium E. Cells were then dispensed into the wells of 96-well plates containing 10 μL of diluted compounds, to reach a final concentration of 0.5×10^6 cells/mL and 1 μM of isoxazolines or 3 μM of control. After an incubation at 37° C. of 0, 15, 30, 60 or 90 minutes, the reaction was stopped with acetonitrile. The samples were then shaken for 10 minutes at 500 rpm and centrifuged at 3220 g for 20 minutes. Supernatants were transferred and stored at 4° C. until LC-MS-MS analysis.

[6] = Further in vitro degradation assay, dog primary hepatocytes
Procedure: as §2

[7] = Further in vitro degradation assay, rat primary hepatocytes
Procedure: as §2

[8] = test system: Lutzomyia longipalpis; assay: Membrane feeding, sand fly Lutzomyia longipalpis; details: in vivo
Text: Isoxazoline compounds fluralaner or afoxolaner were reconstituted in 50% human serum and 50% red blood cells and administered to sand flies Lutzomyia longipalpis and Phlebotomus argentipes via standard membrane feeding. These san fly species are vectors for visceral leishmaniasis. FIG. 12A represents a plot of viable Lutzomyia longipalpis versus fluralaner concentration at various times of assessment. FIG. 12B represents a plot of viable Lutzomyia longipalpis versus afoxolaner concentration at various times of assessment. FIG. 12C represents a plot of viable Phlebotomus argentipes versus fluralaner concentration at various times of assessment. FIG. 12D represents a plot of viable Phlebotomus argentipes versus afoxolaner concentration at various times of assessment. […] The EC50 values of each compound for sand fly death were determined by logistic regression using a least squares method to find the best fit and are shown in the figures.

[9] = test system: Brugia pahangi; assay: Brugia pahangi microfilariae viability (Cell-Titer Glo); type: in vivo
Procedure: Microfilariae of Brugia pahangi were kept in 75 cm^2 flasks in RPMI-1640 with fetal bovine serum as described previously (Plos Negl. Trop. Dis. 2012, e1494). To test viability, 384-well plates were filled with 250 microfilariae per well. Serial dilutions of isoxazolines, ivermectin, moxidectin and equivalent vehicle concentration (0.5% DMSO) were added to the wells. Seventy two hours after treatment, viability was assessed with the Cell-Titer Glo reagent (Promega). FIG. 13A represents a plot of viable Brugia pahangi versus fluralaner, afoxolaner, or control compound (moxidectin and ivermectin) concentration as assessed at 24 hours. FIG. 13B represents a plot of viable Brugia pahangi versus fluralaner, afoxolaner, or control compound (moxidectin and ivermectin) concentration as assessed at 48 hours. FIG. 13C represents a plot of viable Brugia pahangi versus fluralaner, afoxolaner, or control compound (moxidectin and ivermectin) concentration as assessed at 72 hours.

[10] = Dog pharmacokinetics (published values); cited from earlier work
[11] = cited from earlier work
[12] = Brain homogenate binding assay (equilibrium dialysis)
Procedure: Briefly, frozen tissue homogenate (homogenized with buffer at a certain volume ratio) was used as a test matrix. The tissue homogenate was purchased from Bioreclamation (Hicksville, N.Y., USA) or prepared by WuXi AppTec.
Isoxazoline compounds were spiked into blank tissue homogenate at the test concentration. Triplicate samples were used.
An appropriate volume of spiked tissue sample was removed before incubation for recovery calculation. An aliquot (e.g., 150 μL) of matrix sample was added to the donor side of the chamber (donor chamber) in a dialyzer plate (HTD dialysis device or RED device) and a certain amount of dialysis buffer was loaded to the other side of the chamber (receiver chamber). Triplicate incubations were performed (or other replicate number according to specific requirement).
The dialyzer plate was placed into a humidified incubator with 5% CO2 and incubated at 37° C. for appointed time (the general incubation time is 4-6 h).
After incubation, samples were removed from the donor side as well as the receiver side.
The samples were matched with appropriate amount of the opposite blank matrix (tissue homogenate or buffer). […]
The samples were analyzed by LC-MS/MS. Test compound concentrations in matrix and buffer samples were assessed based on the peak area ratios (PAR) of analyte/internal standard (no standard curve).

SMILES: Cc1cc(C2=NO[C@](c3cc(Cl)cc(Cl)c3)(C(F)(F)F)C2)ccc1C(=O)NCC(=O)NCC(F)(F)F [Fluralaner, fluralaner]
- IC50 ([1]; 24 h, 1 day after exposure, read-out: IC50 (Anopheles death)): 54 nM
- IC50 ([1]; 48 h, 2 days after exposure, read-out: IC50 (Anopheles death)): 42 nM
- IC50 ([1]; 192 h, 8 days after exposure, read-out: IC50 (Anopheles death)): 37 nM
- IC50 ([1]; 24 hours after the blood meal, read-out: IC50 [95% CI]): 56 nM
- killing of mosquitos (in words) [1]: effective at killing the mosquitos in a dose-dependent manner
- whole blood IC99 [1]: 119 nM and 66 ng/mL
- IC50 ([2]; 24 hours after the blood meal, Kisumu strain): 33.3 nM
- IC50 ([3]; 24 hours after the blood meal, New Orleans strain): 34.2 nM
- IC50 ([4]; twenty-four hours after the blood meal): 33 to 56 nM
- half-life ([5]; cryopreserved hepatocytes): > 3.61 h
- hepatocyte CLint ([5]; cryopreserved hepatocytes): < 6.4 µL/min/1e6 cells
- metabolization when incubated with human hepatocytes [5]: Neither fluralaner nor afoxolaner showed measurable metabolization
- half-life ([6]; cryopreserved hepatocytes): > 3.61 h
- hepatocyte CLint ([6]; cryopreserved hepatocytes): < 6.4 µL/min/1e6 cells
- half-life ([7]; cryopreserved hepatocytes): > 3.61 h
- hepatocyte CLint ([7]; cryopreserved hepatocytes): < 6.4 µL/min/1e6 cells
- killing of sand flies (in words) [8]: effective at killing the sand flies in a dose-dependent manner
- killing of Brugia pahangi (in words) [9]: effective in killing Brugia pahangi
- CL (plasma clearance) [10]: 5.83 mL/h/kg
- Oral bioavailability [10]: 11-34%
- V (volume of distribution) [10]: 3.1 L/kg
- half-life [10]: 360 h
- embryo-fetal development in rats [11]: unaffected

SMILES: O=C(CNC(=O)c1ccc(C2=NO[C@](c3cc(Cl)cc(C(F)(F)F)c3)(C(F)(F)F)C2)c2ccccc12)NCC(F)(F)F (racemic) [Afoxolaner, afoxolaner]
- IC50 ([1]; 24 h, read-out: IC50 (Anopheles death)): 107 nM
- IC50 ([1]; 24 h, read-out: IC50 [95% CI]): 107 nM
- IC50 ([1]; 48 h, read-out: IC50 (Anopheles death)): 34 nM
- IC50 ([1]; 192 h, read-out: IC50 (Anopheles death)): 14 nM
- killing of mosquitos (in words) [1]: effective at killing the mosquitos in a dose-dependent manner
- whole blood IC99 [1]: 233 nM and 146 ng/mL
- IC50 ([2]; 24 h): 101 nM
- IC50 ([3]; 24 h): 100 nM
- IC50 [4]: 90 to 107 nM
- half-life ([5]; hepatocytes): > 3.61 h
- hepatocyte CLint ([5]; hepatocytes): < 6.4 µL/min/1e6 cells
- metabolization when incubated with human hepatocytes [5]: Neither fluralaner nor afoxolaner showed measurable metabolization
- half-life ([6]; hepatocytes): > 3.61 h
- hepatocyte CLint ([6]; hepatocytes): < 6.4 µL/min/1e6 cells
- half-life ([7]; hepatocytes): > 3.61 h
- hepatocyte CLint ([7]; hepatocytes): < 6.4 µL/min/1e6 cells
- killing of sand flies (in words) [8]: effective at killing the sand flies in a dose-dependent manner
- killing of Brugia pahangi (in words) [9]: effective in killing Brugia pahangi
- CL (plasma clearance) [10]: 4.95 mL/h/kg
- Oral bioavailability [10]: 74%
- V (volume of distribution) [10]: 2.68 L/kg
- half-life [10]: 372 h
- embryo-fetal development in rats [11]: unaffected

SMILES: O=C(CNC(=O)c1ccc(C2=NO[C@@](c3cc(Cl)cc(C(F)(F)F)c3)(C(F)(F)F)C2)c2ccccc12)NCC(F)(F)F [(S)-afoxolaner]
- Brain homogenate % binding [12]: >99.9%

SMILES: O=C(CNC(=O)c1ccc(C2=NO[C@@](c3cc(Cl)cc(Cl)c3)(C(F)(F)F)C2)c2ccccc12)NCC(F)(F)F [(S)-4-(5-(3,5-dichlorophenyl)-5-(trifluoromethyl)-4,5-dihydroisoxazol-3-yl)-N-(2-oxo-2-((2,2,2-trifluoroethyl)amino)ethyl)-1-naphthamide]
- Brain homogenate % binding [12]: >99.9%
